Literature values in PMC2360332 (British Journal of Cancer, 2007).

Assays:
breast cancer growth = test system: breast cancer growth; set-up: method as in Lippman and Bolan, 1975; settings: ref Lippman and Bolan, 1975; cited from earlier work
breast cancer = settings: cited from earlier work
immature mouse uterus = settings: earlier study; ref Bennett et al, 2002; cited from earlier work
Text: (§1) In fact, in this study and ...

ER = settings: ref Parikh et al, 2005; Bennett et al, 2006; cited from earlier work
Text: as §1

[1] = test system: human breast cancer xenografts; settings: cited from earlier work
Text: A peptide (α-fetoprotein-derived peptide (AFPep), sequence cyclo(EKTOVNOGN), where O is hydroxyproline) derived from the active site of α-fetoprotein (AFP) has been under investigation as a potential agent for prevention or therapy of oestrogen receptor-positive (ER+) breast cancer ([Mesfin et al, 2000], [2001]; [Bennett et al, 2002], [2006]; [DeFreest et al, 2004]). […] In fact, in this study and ...

[2] = test system: breast cancer that had become resistant to the cytostatic effects of tamoxifen; settings: ref Bennett et al, 2002; cited from earlier work
Text: (§2) A peptide (α-fetoprotein-derived peptide (AFPep), sequence cyclo(EKTOVNOGN), where O is hydroxyproline) derived from the active site of α-fetoprotein (AFP) has been under investigation as a potential agent for prevention or therapy of oestrogen receptor-positive (ER+) breast cancer ([Mesfin et al, 2000], [2001]; [Bennett et al, 2002], [2006]; [DeFreest et al, 2004]).

[3] = test system: MNU-induced breast cancers in rats; settings: ref Parikh et al, 2005; cited from earlier work
Text: as §2

Row | Compound | Breast cancer growth (in words) (breast cancer growth) | Risk of primary breast cancers (in words) (breast cancer; high-risk patients, ref Fisher et al, 1998) | Breast cancer recurrences (in words) (breast cancer; ref Early Breast Cancer Trialists' Collaborative Group, 1992) | Tam-induced uterine hyperplasia (in words) (immature mouse uterus) | ER antagonist / partial agonist (in words) (ER) | Oral activity (in words) ([1]; oral route, ref Bennett et al, 2006) | Growth of human breast cancer xenografts in mice (in words) ([1]; ref Mesfin et al, 2001) | Growth of tamoxifen-resistant breast cancer (in words) [2] | Development of carcinogen-induced mammary cancers in rats (in words) [3]
1 | CC/C(=C(\c1ccccc1)c1ccc(OCCN(C)C)cc1)c1ccccc1 [Tam, Tamoxifen, reference compound] | inhibit breast cancer growth | decrease the risk of primary breast cancers in high-risk patients | inhibit breast cancer recurrences |  |  |  |  |  | 
2 | cyclo(EKTOVNOGN) (head to tail) [AFPep] |  |  |  | interferes with the uterine hyperplasia induced by Tam | not an ER antagonist, nor an ER partial agonist | active by the oral route | inhibit the growth of human breast cancer xenografts in mice | inhibit the growth of breast cancer that had become resistant to the cytostatic effects of tamoxifen | prevent the development of carcinogen-induced mammary cancers in rats
